From patent US10668134B2, “Dental pretreatment material and dental tissue regeneration kit” (National Center for Geriatrics and Gerontology, priority 2016, dated 2020)

Columns and labels:
[1] = tested on: TGW cells (human neuroblastoma cell line); assay: Neurite outgrowth in TGW cells with culture conditioned medium of senescent dental pulp stem cells; format: cell-based; settings: after 48 hours, DPSC CM alone 111.5 ± 14.1 μm
Method: (§1) Non-separated 22nd-passage human dental pulp stem cells were brought into a state of 50% confluence. The medium was replaced with a serum-free medium. After 24 hours, the culture conditioned medium was collected. The supernatant was concentrated approximately 40-fold using Amicon Ultra-15 Centrifugal Filter Unit with Ultracel-3 membrane (Millipore, Billerica, Mass.) with 3-kDa molecular cut. Proteinase inhibitors (Halt™ proteinase inhibitor cocktail EDTA-free, Thermo Scientific, Rockford, Ill., USA) was added. The mixture was dispended to be stored at −80° C. Protein content was measured using Bradford Ultra™ (Expedeon, Cambridge, UK).
The culture supernatant (5 μg/ml proteins) prepared in 1 above was added to TGW cells (human neuroblastoma cell line). Further, an ALK5 inhibitor (SB431542, 10 ng/μl) was added to a part of the resultant mixture, and a CCR3 antagonist (SB328437, 5 ng/μl) was added to another part of the resultant mixture. TGW cells to which only the culture supernatant was added was used as a negative control. […] Neurite outgrowth after 48 hours was observed and measured with an inverted microscope (Leica).

[2] = tested on: Eleventh-passage human periodontal ligament cells; assay: Expression of migratory capacity-related factors in senescent cells of human periodontal membrane (real-time RT-PCR); format: cell-based; settings: control = 1
Method: (§2) Eleventh-passage human periodontal ligament cells were plated in DMEM containing 10% FBS in collagen-coated 35 mm dishes (IWAKI) at a density of 2×10^4 cells/ml. After 20 hours, ALK5 inhibitor (SB431542) was added to final concentrations of 5 ng/μl and 10 ng/μl. Further, CCR3 antagonist (SB328437) was added to final concentrations of 5 ng/μl and 10 ng/μl. After 48 hours, mRNA was extracted, and real-time RT-PCR was performed on senescence markers, namely p16, p53, IL6, IL1b, IL8, and TNFα (Table 4).
Real-time RT-PCR was performed on migratory capacity-related factors, namely, MMP9, MMP3, and MMP2 (Table 8) using mRNA similar to that described in 2 above.

[3] = tested on: HUVECs (Human Umbilical Vein Endothelial Cells); assay: Blood vessel-inducing capacity of culture supernatant of senescent dental pulp stem cells on HUVECs on matrigel; format: cell-based; settings: after 5 hours, DPSC CM alone 5.9 ± 2.9 mm
Method: as §1
HUVECs (Human Umbilical Vein Endothelial Cells) (clone 7F3415) (Lonza) were cultured with EGM 2 containing 10% FBS (Lonza). Thereafter, the culture supernatant (5 μg/ml proteins) prepared in 1 above was added to DMEM, as a blood vessel-inducing medium, containing 2% FBS, 5 μg/ml heparin (Lonza), 5 μg/ml ascorbic acid (Lonza), and 5 μg/ml hydrocortisone (Lonza). Further, an ALK5 inhibitor (SB431542, 10 ng/μl) was added to a part of the resultant mixture, and a CCR3 antagonist (SB328437, 5 ng/μl) was added to another part of the resultant mixture. […] Quantitative measurement was conducted, using Suite V3 software (Leica), on the length of a formed cord or tubular lumen.

[4] = tested on: post-pulpectomy root canal of a tooth of the canine; assay: Dental pulp regeneration after pulpectomy, allogeneic transplantation of dental pulp stem cells with root canal filler containing ALK5 inhibitor or CCR3 antagonist; format: in vivo, dog
Text: For each tooth, the root canal was enlarged with #50-55 to the apex, and was washed alternately with a 5% sodium hypochlorite solution and a 3% hydrogen peroxide solution, followed by washing with physiologic saline. The root canal was completely dried with paper points, and hemorrhage was controlled. The root canal was completely closed with a temporary seal of cement and resin. After 7 to 14 days following the pulpectomy, the temporary seal was removed, and the root canal underwent alternate washing and with physiologic saline. Smearclean was then allowed to react for 2 minutes. The root canal was then further washed with physiologic saline, and dried. A root canal filler was prepared by suspending 1×10^6 allogenic dental pulp stem cells, which had been membrane-separated, in 40 μl of a scaffold (Koken Atelocollagen Implant, KOKEN CO., LTD.), and by suspending 3 μl of a 100 μg/ml G-CSF (NEUTROGIN, Chugai Pharmaceutical Co., Ltd.). Further, an ALK5 inhibitor (SB431542, 200 ng) was added to part of the root canal filler. A CCR3 antagonist (SB328437, 200 ng) was added to another part of the root canal filler. The root canal filler with the ALK5 inhibitor or the CCR3 antagonist was injected into associated root canal such that no air bubbles were involved. A hemostatic gelatin sponge (Spongel) was put on the root canal filler. The cavity was completely sealed with cement and resin. After 14 days and 60 days following the transplantation, the teeth were extracted. According to a common method, 5 μm paraffin sections of longitudinal cross section were prepared. The paraffin sections were then H-E stained to undergo morphological observation. Amounts of regenerated dental pulp of four sections were measured for each sample, and an average amount of three samples (14-day samples) or an average amount of four samples (60-day samples) was determined to be the amount of regenerated dental pulp of the respective sample. To analyze angiogenesis, the 60-day samples were immunostained with BS-1 lectin. To analyze neurite outgrowth, the 60-day samples were immunostained with PGP 9.5.

[5] = tested on: Eleventh-passage human periodontal ligament cells; assay: Senescence marker expression in senescent cells of human periodontal membrane (real-time RT-PCR); format: cell-based; settings: 48 hours; for IL1β senescence marker expression / IL6 senescence marker expression / IL8 senescence marker expression / p16 senescence marker expression / p53 senescence marker expression: control = 1
Method: as §2

[6] = tested on: Eleventh-passage human periodontal ligament cells; assay: Trophic factor expression in senescent cells of human periodontal membrane (real-time RT-PCR); format: cell-based; settings: control = 1
Method: as §2
Real-time RT-PCR was performed on trophic factors, namely, VEGF, BDNF, NGF, MCP1 (Table below) using mRNA similar to that described in 2 above.

[7] = canine of middle or advanced age, 200 ng in root canal filler, after 14 days, vs filler without
[8] = canine of middle or advanced age, 200 ng in root canal filler, after 60 days, vs filler without
[9] = canine of middle or advanced age, 200 ng, after 60 days

Compound	MMP2 expression (migratory capacity-related factor) ([2]; 5 ng/μl)	MMP3 expression (migratory capacity-related factor) ([2]; 5 ng/μl)	MMP9 expression (migratory capacity-related factor) ([2]; 5 ng/μl)	MMP2 expression (migratory capacity-related factor) ([2]; 10 ng/μl)	MMP3 expression (migratory capacity-related factor) ([2]; 10 ng/μl)	MMP9 expression (migratory capacity-related factor) ([2]; 10 ng/μl)	amount of regenerated dental pulp tissue [4, 7]	amount of regenerated dental pulp tissue [4, 8]	IL1β senescence marker expression ([5]; 5 ng/μl)	IL6 senescence marker expression ([5]; 5 ng/μl)	IL8 senescence marker expression ([5]; 5 ng/μl)	p16 senescence marker expression ([5]; 5 ng/μl)	p53 senescence marker expression ([5]; 5 ng/μl)	IL1β senescence marker expression ([5]; 10 ng/μl)	IL6 senescence marker expression ([5]; 10 ng/μl)	IL8 senescence marker expression ([5]; 10 ng/μl)	p16 senescence marker expression ([5]; 10 ng/μl)	p53 senescence marker expression ([5]; 10 ng/μl)	BDNF trophic factor expression ([6]; 5 ng/μl)	MCP1 trophic factor expression ([6]; 5 ng/μl)	further results
NC(=O)c1ccc(-c2nc(-c3ccc4c(c3)OCO4)c(-c3ccccn3)[nH]2)cc1 [ALK5 inhibitor, SB431542]	0.93	1.08	0.10	1.02	0.96	0.06	significant increase	significant increase	0.16	0.20	0.15	0.36	0.92	0.03	0.04	0.04	0.10	0.50	0.44	1.08	Neurite Outgrowth Length ([1]; DPSC CM + 10 ng/μl): 2710.5 ± 1223.0 μm; Length of New Blood Vessel ([3]; DPSC CM + 10 ng/μl): 13.2 ± 2.6 mm; density of angiogenesis (BS-1 lectin) [4, 9]: significant increase; TNFα mRNA expression ([5]; 5 ng/μl and 10 ng/μl added): significantly suppressed; NGF trophic factor expression ([6]; 5 ng/μl): 0.58; VEGF trophic factor expression ([6]; 5 ng/μl): 0.96; BDNF trophic factor expression ([6]; 10 ng/μl): 0.47; MCP1 trophic factor expression ([6]; 10 ng/μl): 0.96; NGF trophic factor expression ([6]; 10 ng/μl): 0.44; VEGF trophic factor expression ([6]; 10 ng/μl): 1.25
COC(=O)[C@H](Cc1ccc([N+](=O)[O-])cc1)NC(=O)c1cccc2ccccc12 [CCR3 antagonist, SB328437]	0.54	2.34	0	0.75	0.54	0.63	significant increase	significant increase	0.09	0.09	0.12	0.14	0.56	0.31	0.20	0.26	0.30	0.92	0.33	2.35	Neurite Outgrowth Length ([1]; DPSC CM + 5 ng/μl): 518.7 ± 126.5 μm; Length of New Blood Vessel ([3]; DPSC CM + 5 ng/μl): 2.8 ± 0.3 mm; neurite outgrowth (PGP 9.5) [4, 9]: significant increase; amount of regenerated dental pulp tissue ([4]; canine of young age, 200 ng, after 14 days): did not cause any significant increase; NGF trophic factor expression ([6]; 5 ng/μl): 0.50; VEGF trophic factor expression ([6]; 5 ng/μl): 0.92; BDNF trophic factor expression ([6]; 10 ng/μl): 0.43; MCP1 trophic factor expression ([6]; 10 ng/μl): 0.54; NGF trophic factor expression ([6]; 10 ng/μl): 0.58; VEGF trophic factor expression ([6]; 10 ng/μl): 0.70
